Two compounds from US20210380930A1, “METHODS, APPARATUS AND KITS FOR BACTERIAL CELL LYSIS” (TECHNISCHE UNIVERSITÄT WIEN, priority 2018, published 2021) can be followed below.

In the test the test system is Enterococcus faecalis type strain NCTC 775. The test is described as follows: Cell lysis experiments with ILs, released DNA quantified by ENT-qPCR. It is filed as cell-based. Background: Real-time PCR tracks product formation cycle by cycle.

The structures appear in SMILES notation. Read-outs that look alike come from different tables or passages of the source.

For `CC(=O)[O-].CCn1cc[n+](C)c1` [[C2mim]OAc, 1-Ethyl-3-methylimidazollum acetate], the “23S rRNA gene copies in 2.5 μl of the DNA extracts” value was about 6.48±0.02. Further, the “cell lysis efficiency with varying IL concentrations” value (IL from 90% (w/v) to 10% (w/v), same extraction procedure) is given as “almost steadily decreased with its respective concentration”.
On to `CCCCCC(=O)[O-].C[N+](C)(C)CCO` [[Cho]Hex, Choline hexanoate], for which the “23S rRNA gene copies in 2.5 μl of the DNA extracts” value is listed as about 6.49±0.11; the “cell lysis efficiency with varying IL concentrations” value is “slightly improved towards a concentration of 50% (w/v), only decreasing with lower concentrations of 30% (w/v) and 10% (w/v)”.
